Results as given in ChEMBL document CHEMBL3886525, “Pyrazolo[3,4-c]pyridine compounds and methods of use” (2016).

These compounds were tested against Serine/threonine-protein kinase pim-1 (Homo sapiens, UniProt P11309) (assay: A fluorescent-labeled Pim-specific peptide substrate, was custom synthesized by American Peptide Company (Sunnyvale, Calif.). Reaction Buffer contained 10 mM HEPES, pH 7.2, 10 mM MgCl2, 0.01% Tween 20, 2 mM DTT.).
Chain of Serine/threonine-protein kinase pim-1 (P11309 whole entry): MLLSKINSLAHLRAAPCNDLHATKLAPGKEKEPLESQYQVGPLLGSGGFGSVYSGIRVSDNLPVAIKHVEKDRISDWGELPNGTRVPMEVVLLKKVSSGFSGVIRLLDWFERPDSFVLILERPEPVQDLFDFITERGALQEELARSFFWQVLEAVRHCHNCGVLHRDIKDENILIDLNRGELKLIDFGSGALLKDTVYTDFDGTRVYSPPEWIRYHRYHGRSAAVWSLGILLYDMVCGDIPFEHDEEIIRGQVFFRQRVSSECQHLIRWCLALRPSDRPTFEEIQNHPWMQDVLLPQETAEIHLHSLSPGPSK

Ki | SMILES
122 nM | Fc1ccccc1-c1n[nH]c2cnc(-c3cccnc3)cc12
0.118 nM | N[C@@H]1CCN(c2nc(-c3n[nH]c4cnc(-c5cccnc5)cc34)ccc2Br)C1
0.262 nM | c1cncc(-c2cc3c(-c4cccc(N5CCOCC5)n4)n[nH]c3cn2)c1
9.65 nM | c1ccc(-c2n[nH]c3cnc(-c4cccnc4)cc23)cc1
2200 nM | Cc1n[nH]c2cnc(-c3cccc(F)c3)cc12
1.41 nM | CCn1cc(-c2cc3c(-c4ccc(=O)n(CC5(C(N)=O)CC5)c4)n[nH]c3cn2)cn1
0.415 nM | c1cncc(-c2cc3c(-c4cccc(N5CCCCC5)n4)n[nH]c3cn2)c1
